The test system of this test is HIV-1 (H9IIIB strain). The experiment in a line: Cell-based HIV infection assay using a reporter (Cell-Based), MT4-GFP cells. The conditions noted are these: 50% normal human serum, mean of at least two independent experiments, read-out: Cell-based IP. The procedure:
Cell-Based HIV Infection Assay Using a Reporter (“Cell-Based”):
MT4-GFP cells contain a stably integrated HIV long terminal repeat promoter directing the transcription of green fluorescent protein (GFP). When HIV infects the cell, GFP is produced and the cell becomes green. MT4-GFP cells (250,000 cells/ml) were bulk-infected with HIV-1 (H9IIIB strain) at low multiplicity of infection (MOI) in RPMI media, supplemented with 10% FBS for 24 hours. Cells were then washed once in RPMI plus 10% FBS and resuspended in RPMI plus 50% normal human serum (NHS). Test compounds were serial-diluted in DMSO using an ECHO liquid dispenser. A control well included a combination of three HIV drugs (an inhibitor of HIV protease, integrase strand transfer and a non-nucleoside reverse transcriptase inhibitor; triple drug). The infected MT4-GFP cells were added to a 384-well poly-D-lysine coated black plate with clear bottom in which the diluted test compounds were placed. The cells were seeded in the plate at 8,000 cells per well and the final DMSO concentration was 0.4%. Infected cells were quantified at both 24 and 48 hours post incubation using an Acumen eX3 plate reader. Viral reproductive ratio (R0) was determined using the number of infected cells at 48 hours divided by the number of infected cells at 24 hours. Percent viral growth inhibition was calculated by [1−(R−Rtripledrug)/(RDMSO−Rtripledrug)]*100. Compound potency IP or IC50 was determined with use of a 4-parameter dose response curve analysis.

Setting [1] is: MT4-GFP cells infected with HIV-1 H9IIIB.
Where [2] appears, read: Human immunodeficiency virus 1, MT4-GFP cells infected with HIV-1 H9IIIB.

IC50 data for 22 compounds are collected here from patent US9840478B2 (MERCK SHARP & DOHME CORP., priority 2013, dated 2017).

Where two headings read alike, the source gives them in different places.

On to `COC(=O)NC(C(=O)NC1CC1CC[C@H]1CNCCN1S(=O)(=O)c1ccccc1)C(c1ccc(F)cc1)c1ccc(F)cc1` (single isomer, unassigned) [Example 362], for which, under setting [1], the IC50 turned out to be 0.076 µM.

As to `COC(=O)NC(C(=O)NC1CC1CC[C@H]1CNCCN1S(=O)(=O)c1ccccc1)C(c1ccc(F)cc1)c1ccc(F)cc1` (single isomer, unassigned) [Example 363], the IC50 under setting [1] came out at 0.37 µM.

In the case of `O=C(Nc1cccc(F)c1CC[C@H]1CNCCN1S(=O)(=O)c1ccccc1)[C@@H](O)C(c1ccccc1)c1ccccc1` (single isomer, unassigned) [Example 364], under setting [2], the IC50 is 0.034 µM.

For the compound `O=C(Nc1cccc(F)c1CC[C@H]1CNCCN1S(=O)(=O)c1ccccc1)[C@H](O)C(c1ccccc1)c1ccccc1` (single isomer, unassigned) [Example 365], the IC50 under setting [2] is 0.068 µM.

Regarding `COc1ccc([C@H](c2ccc(Cl)cc2)[C@H](N)C(=O)Nc2cccc(F)c2CC[C@H]2CNCC(C)N2S(=O)(=O)C2CC2)cn1` (stereo in doubt) [Example 152, (βS)-4-chloro-N-(2-{2-[(2S,6S)-1-(cyclopropylsulfonyl)-6-methylpiperazin-2-yl]ethyl}-3-fluorophenyl)-β-(6-methoxypyridin-3-yl)-L-phenylalaninamide], under setting [2], the IC50 was determined as 0.039 µM.

As to `COC(=O)NC(C(=O)NC1CC(F)(F)CC1CC[C@H]1CNCCN1S(=O)(=O)c1ccccc1)C(c1ccc(F)cc1)c1ccc(F)cc1` (stereo in doubt) [Example 358, Methyl ((2R)-1-((4,4-difluoro-2-(2-((S)-1-(phenylsulfonyl)piperazin-2-yl)ethyl)cyclopentyl)amino)-3,3-bis(4-fluorophenyl)-1-oxopropan-2-yl)carbamate], under setting [1], the IC50 is 0.16 µM.

For `COC(=O)NC(C(=O)NC1CC(F)(F)CC1CC[C@H]1CNCCN1S(=O)(=O)c1ccccc1)C(c1ccc(F)cc1)c1ccc(F)cc1` (stereo in doubt) [Example 359, Methyl ((2R)-1-((4,4-difluoro-2-(2-((S)-1-(phenylsulfonyl)piperazin-2-yl)ethyl)cyclopentyl)amino)-3,3-bis(4-fluorophenyl)-1-oxopropan-2-yl)carbamate], the IC50 under setting [1] stood at 0.53 µM.

Turning to `N[C@H](C(=O)Nc1cncc(F)c1CC[C@H]1CNCCN1S(=O)(=O)c1ccccc1)C(c1cccc(F)c1)c1cccc(F)c1` [Example 4, (S)-2-Amino-N-(5-fluoro-4-(2-((S)-1-(phenylsulfonyl)piperazin-2-yl)ethyl)pyridine-3-yl)-3,3-bis(3-fluorophenyl)propanamide], the IC50 under setting [2] is 0.0043 µM.

With `COC(=O)N[C@H](C(=O)Nc1cccc(F)c1CC[C@H]1CNCCN1S(=O)(=O)c1ccccc1)[C@@H](c1ccc(Cl)cc1)c1ccc(OC)nc1` [Example 5, Methyl ((1S,2S)-1-(4-chlorophenyl)-3-((3-fluoro-2-(2((S)-1-(phenylsulfonyl)piperizin-2-yl)ethyl)phenyl)amino)-1-(6-methoxypyridin-3-yl)-3-oxopropan-2-yl)carbamate], under setting [2], the IC50 is 0.0059 µM.

As to `N[C@H](C(=O)Nc1cccc(F)c1CC[C@H]1CNCCN1S(=O)(=O)c1ccccc1)[C@@H](c1ccc(Cl)cc1)c1cncc(C(F)(F)F)c1` [Example 6, (2S,3S)-2-amino-3-(4-chlorophenyl)-N-(3-fluoro-2-(2-((S)-1-(phenylsulfonyl)piperazin-2-yl)ethyl)phenyl)-3-(5-(trifluoromethyl)pyridine-3-yl)propanamide], the IC50 under setting [2] was 0.0078 µM.

In the case of `COC(=O)N[C@H](C(=O)Nc1cccc(F)c1CC[C@H]1CNC[C@H](C)N1S(=O)(=O)c1ccccc1)[C@@H](c1ccc(F)cc1)C1CCOCC1` [Example 7, Methyl ((2S,3R)-1-((3-fluoro-2-(2-((2S,6S)-6-methyl-1-(phenylsulfonyl)piperazin-2-yl)ethyl)phenyl)amino)-3-(4-fluorophenyl)-1-oxo-3-(tetrahydro-2H-pyran-4-yl)propan-2-yl)carbamate], the IC50 under setting [2] worked out at 0.006 µM.

On to `COC(=O)N[C@H](C(=O)Nc1cncc(F)c1CC[C@H]1CNC[C@H](C)N1S(=O)(=O)c1ccccc1)[C@@H](c1ccc(Cl)cc1)C(C)C` [Example 8, Methyl ((2S,3R)-3-(4-chlorophenyl)-1-((5-fluoro-4-(2-((2S,6S)-6-methyl-1-(phenylsulfonyl)piperzin-2-yl)ethyl)pyridin-3-yl)amino)-4-methyl-1-oxopentan-2-yl)carbamate], for which the IC50 under setting [2] is 0.0098 µM.

As to `COc1ccc(S(=O)(=O)N2[C@@H](CCc3c(F)cncc3NC(=O)[C@@H](N)[C@@H](c3ccc(Cl)cc3)C3CCOCC3)CNC[C@@H]2C)cc1` [Example 9, (2S,3R)-2-Amino-3-(4-chlorophenyl)-N-(5-fluoro-4-(2-((2S,6S)-1-((4-methoxyphenyl)sulfonyl)-6-methylpiperazin-2-yl)ethyl)pyridin-3-yl)-3-(tetrahydro-2H-pyran-4-yl)propanamide], the IC50 under setting [2] was determined as 0.0071 µM.

For `C[C@H]1CNC[C@H](CCc2c(F)cccc2NC(=O)[C@@H](N)C(c2cccc(F)c2)c2cccc(F)c2)N1S(=O)(=O)c1ccccc1` [Example 10, (S)-2-Amino-N-(3-fluoro-2-(2-((2S,6S)-6-methyl-1-(phenylsulfonyl)piperazin-2-yl)ethyl)phenyl)-3,3-bis(3-fluorophenyl)propanamide], the IC50 under setting [2] was found to be 0.011 µM.

On to `COC(=O)N[C@H](C(=O)Nc1cncc(F)c1CC[C@H]1CNC[C@H](C)N1S(=O)(=O)C1CC1)[C@@H](c1ccc(Cl)cc1)c1cccc(F)c1` [Example 11, Methyl ((1S,2S)-1-(4-chlorophenyl)-3-((4-(2-((2S,6S)-1-(cyclopropylsulfonyl)-6-methylpiperazin-2-yl)ethyl)-5-fluoropyridin-3-yl)amino)-1-(3-fluorophenyl)-3-oxopropan-2-yl)carbamate], for which the IC50 under setting [2] was 0.011 µM.

For `COC(=O)N[C@H](C(=O)Nc1cccc(F)c1CC[C@H]1CNC[C@H](C)N1S(=O)(=O)C1CC1)[C@@H](c1ccc(Cl)cc1)C1CCOCC1` [Example 12, Methyl (1R,2S)-1-(4-chlorophenyl)-3-(2-(2-((2S,6S)-1-(cyclopropylsulfonyl)-6-methylpiperazin-2-yl)ethyl)-3-fluorophenylamino)-3-oxo-1-(tetrahydro-2H-pyran-4-yl)propan-2-ylcarbamate], under setting [2], the IC50 was 0.018 µM.

On to `C[C@@H]1CNC[C@H](CCc2c(F)cncc2NC(=O)[C@@H](N)[C@@H](c2ccc(F)cc2)c2cc(F)cc(F)c2)N1S(=O)(=O)c1ccccc1` [Example 13, (βS)-β-(3,5-difluorophenyl)-4-fluoro-N-(5-fluoro-4-{2-[(2S,6R)-6-methyl-1-(phenylsulfonyl)piperazin-2-yl]ethyl}pyridin-3-yl)-L-phenylalaninamide], for which the IC50 under setting [2] is 0.02 µM.

For the compound `COc1ccc([C@H](c2ccc(Cl)cc2)[C@H](N)C(=O)Nc2cccc(F)c2CC[C@H]2CNC[C@@H](C)N2S(=O)(=O)c2ccccc2)cn1` [Example 14, (βS)-4-chloro-N-(3-fluoro-2-{2-[(2S,6R)-6-methyl-1-(phenylsulfonyl)piperazin-2-yl]ethyl}phenyl)-β-(6-methoxypyridin-3-yl)-L-phenylalaninamide], the IC50 under setting [2] was determined as 0.018 µM.

Consider `C[C@@H]1CNC[C@H](CCc2c(F)cncc2NC(=O)[C@@H](N)[C@@H](c2ccc(F)cc2)c2cc(F)cc(F)c2)N1S(=O)(=O)C1CC1` [Example 15, (βS)—N-(4-{2-[(2S,6R)-1-(cyclopropylsulfonyl)-6-methylpiperazin-2-yl]ethyl}-5-fluoropyridin-3-yl)-β-(3,5-difluorophenyl)-4-fluoro-L-phenylalaninamide], for which the IC50 under setting [2] was found to be 0.018 µM.

Consider `COc1ccc(S(=O)(=O)N2[C@@H](CCc3c(F)cccc3NC(=O)[C@@H](N)[C@@H](c3ccc(F)cc3)c3cc(F)cc(F)c3)CNC[C@H]2C)cc1` [Example 16, (βS)-β-(3,5-difluorophenyl)-4-fluoro-N-[3-fluoro-2-(2-{(2S,6R)-1-[(4-methoxyphenyl)sulfonyl]-6-methylpiperazin-2-yl}ethyl)phenyl]-L-phenylalaninamide], for which the IC50 under setting [2] is 0.0054 µM.

For the compound `COC(=O)N[C@H](C(=O)Nc1cncc(F)c1CC[C@H]1CNC[C@@H](C)N1S(=O)(=O)c1ccccc1)[C@@H](c1ccc(Cl)cc1)C(C)C` [Example 17, (βR)-4-chloro-N-(5-fluoro-4-{2-[(2S,6R)-6-methyl-1-(phenylsulfonyl)piperazin-2-yl]ethyl}pyridin-3-yl)-Nα-(methoxycarbonyl)-β-(1-methylethyl)-L-phenylalaninamide], the IC50 under setting [2] turned out to be 0.0044 µM.

Consider `COC(=O)N[C@H](C(=O)Nc1cccc(F)c1CC[C@H]1CNC[C@@H](C)N1S(=O)(=O)c1ccc(F)cc1)[C@@H](c1ccc(Cl)cc1)C1CCOCC1` [Example 18, Methyl ((1R,2S)-1-(4-chlorophenyl)-3-((3-fluoro-2-(2-((2S,6R)-1-((4-fluorophenyl)sulfonyl)-6-methylpiperazin-2-yl)ethyl)phenyl)amino)-3-oxo-1-(tetrahydro-2H-pyran-4-yl)propan-2-yl)carbamate], for which the IC50 under setting [2] was found to be 0.0086 µM.
